From patent US12186283B2, “Bismuth-thiol compositions and methods of use” (Microbion Corporation, priority 2018, dated 2025)
Values after ≈ are worked out from the molar mass of the structure shown. Where two headings read alike, the source gives them in different places. Each block holds one molecule with its values, some of them ahead of it.

Experiments:
S. aureus ATCC 29213 = experiment: Broth microdilution MIC, QC organism (Example 13, Table 110); assay type: cell-based, Staphylococcus aureus
Source text: (§1) MECs were only reported where observed.

Candida spp. [1] = experiment: Broth microdilution MIC, yeast (Example 13), group statement and QC; assay type: cell-based; settings: C. parapsilosis ATCC 22019, comparators, single value
Candida krusei [2] = settings: C. krusei ATCC 6258, CLSI established QC range, cited from earlier work
E. coli ATCC 25922 = experiment: Broth microdilution MIC, QC organism (Example 13, Table 110); assay type: cell-based, Escherichia coli
Source text: as §1

Aspergillus spp. [3] = experiment: Broth microdilution MIC/MEC, mold (Example 13); assay type: cell-based
Aspergillus spp. [4] = settings: cited from earlier work
Candida krusei [5] = experiment: Broth microdilution MIC, yeast (Example 13); assay type: cell-based; settings: C. krusei ATCC 6258 (QC, Table 110), comparators, single value
[6] = test system: Candida spp. (C. parapsilosis, C. albicans, C. glabrata, C. tropicalis); settings: C. parapsilosis MMX 2323 (ATCC 22019), cited from earlier work
[7] = test system: Candida spp. (C. parapsilosis, C. albicans, C. glabrata, C. tropicalis); experiment: Broth microdilution MIC, yeast (Example 11); assay type: cell-based
Candida spp. [8] = settings: C. parapsilosis ATCC 22019, CLSI established QC range, cited from earlier work
[9] = test system: Staphylococcus aureus (MRSA); settings: S. aureus MMX 101 (ATCC 29213); cited from earlier work
[10] = test system: Enterococcus spp. (E. faecalis, E. faecium); experiment: Broth microdilution MIC (Example 11); assay type: cell-based; settings: Enterococcus faecium, VRE, E. faecium MMX 485; VRE, vanA, LevR, CipR, EryR; read-out: MIC
Pseudomonas aeruginosa = settings: P. aeruginosa MMX 103 (ATCC 27853); cited from earlier work
Escherichia coli = settings: E. coli MMX 102 (ATCC 25922); cited from earlier work
[11] = test system: beta-hemolytic streptococci (S. pyogenes, S. agalactiae); experiment: Broth microdilution MIC (Example 11); assay type: cell-based, Streptococcus pyogenes, Streptococcus agalactiae; settings: read-out: MIC
[12] = test system: S. pneumoniae (pneumococci); settings: S. pneumoniae MMX 6837 (ATCC 49619); cited from earlier work
[13] = A. flavus ATCC 204304 (QC, Table 110)
[14] = A. fumigatus ATCC MYA-3626 (QC, Table 110)

MIC 24 hr (S. aureus ATCC 29213): > 64 µg/mL
MIC 24 hr (Candida spp. [1]; 24 hr): 0.5 µg/mL (≈ 0.541 µM)
MIC 48 hr (Candida spp. [1]; 48 hr): 0.5 µg/mL (≈ 0.541 µM)
MIC 24 hr (E. coli ATCC 25922): > 64 µg/mL
MIC 24 hr (Aspergillus spp. [3]; [13]): 0.5 µg/mL (≈ 0.541 µM)
MIC 48 hr (Aspergillus spp. [3]; [13]): 1 µg/mL (≈ 1.08 µM)
MIC 24 hr (Aspergillus spp. [3]; [14]): 0.5 µg/mL (≈ 0.541 µM)
MIC 48 hr (Aspergillus spp. [3]; [14]): 1 µg/mL (≈ 1.08 µM)
MIC 24 hr (Candida krusei [5]; 24 hr): 0.5 µg/mL (≈ 0.541 µM)
MIC 48 hr (Candida krusei [5]; 48 hr): 0.5 µg/mL (≈ 0.541 µM)
MIC ([7]; C. albicans MMX 7039, Sensitive, 24 hr): 0.5, 0.5 μg/mL
MIC ([7]; C. albicans MMX 7039, Sensitive, 48 hr): 0.5, 0.5 μg/mL
MIC ([7]; C. albicans MMX 7055, Sensitive, 24 hr): 0.25 µg/mL (≈ 0.271 µM)
MIC ([7]; C. albicans MMX 7055, Sensitive, 48 hr): 0.5 µg/mL (≈ 0.541 µM)
MIC ([7]; C. glabrata MMX 7086, FLU^R, 24 hr): 0.5 µg/mL (≈ 0.541 µM)
MIC ([7]; C. glabrata MMX 7086, FLU^R, 48 hr): 1 µg/mL (≈ 1.08 µM)
MIC ([7]; C. glabrata MMX 7318, FLU^R, 24 hr): 0.5 µg/mL (≈ 0.541 µM)
MIC ([7]; C. glabrata MMX 7318, FLU^R, 48 hr): 1 µg/mL (≈ 1.08 µM)
MIC ([7]; C. parapsilosis MMX 2323 (ATCC 22019), QC, 24 hr): 0.5 µg/mL (≈ 0.541 µM)
MIC ([7]; C. parapsilosis MMX 2323 (ATCC 22019), QC, 48 hr): 1 µg/mL (≈ 1.08 µM)
MIC ([7]; C. parapsilosis MMX 7370, FLU^R, 24 hr): 0.5 µg/mL (≈ 0.541 µM)
MIC ([7]; C. parapsilosis MMX 7370, FLU^R, 48 hr): 1 µg/mL (≈ 1.08 µM)
MIC ([7]; C. parapsilosis MMX 7555, FLU^R, 24 hr): 0.5, 0.5 μg/mL
MIC ([7]; C. parapsilosis MMX 7555, FLU^R, 48 hr): 0.5, 0.5 μg/mL
MIC ([7]; C. tropicalis MMX 7247, FLU^R, 24 hr): 0.5 µg/mL (≈ 0.541 µM)
MIC ([7]; C. tropicalis MMX 7247, FLU^R, 48 hr): 1 µg/mL (≈ 1.08 µM)
MIC ([7]; C. tropicalis MMX 7248, FLU^R, 24 hr): 0.5 µg/mL (≈ 0.541 µM)
MIC ([7]; C. tropicalis MMX 7248, FLU^R, 48 hr): 1 µg/mL (≈ 1.08 µM)
MIC ([7]; C. tropicalis MMX 7360, FLU^R, 24 hr): 0.5, 0.5 μg/mL
MIC ([7]; C. tropicalis MMX 7360, FLU^R, 48 hr): 0.5, 0.5 μg/mL
Compound: C[C@@H]1[C@H](O)[C@@H](C)/C=C/C=C/C=C/C=C/C=C/C=C/C=C/[C@H](O[C@@H]2O[C@H](C)[C@@H](O)[C@H](N)[C@@H]2O)C[C@@H]2O[C@](O)(C[C@@H](O)C[C@@H](O)[C@H](O)CC[C@@H](O)C[C@@H](O)CC(=O)O[C@H]1C)C[C@H](O)[C@H]2C(=O)O [Amphotericin B]
QC Range 24 hr (Candida krusei [2]; 24 hr): 0.5-2
QC Range 48 hr (Candida krusei [2]; 48 hr): 1-4
QC Range 48 hr (Aspergillus spp. [4]; A. flavus ATCC 204304, CLSI established QC range): 0.5-4
QC Range 48 hr (Aspergillus spp. [4]; A. fumigatus ATCC MYA-3626, CLSI established QC range): 0.5-4
MIC, CLSI QC range ([6]; 24 hr): 0.25 to 2 µg/mL
MIC, CLSI QC range ([6]; 48 hr): 0.5 to 4 µg/mL
QC Range 24 hr (Candida spp. [8]; 24 hr): 0.25-2
QC Range 48 hr (Candida spp. [8]; 48 hr): 0.5-4

MIC [10]: > 32 µg/mL
Compound: CC(C)(O/N=C(\C(=O)N[C@@H]1C(=O)N2C(C(=O)[O-])=C(C[n+]3ccccc3)CS[C@H]12)c1csc(N)n1)C(=O)O [Ceftazidime]
CLSI QC range (MIC) [9]: (4-16) μg/mL
CLSI QC range (MIC) (Pseudomonas aeruginosa): (1-4)
CLSI QC range (MIC) (Escherichia coli): (0.06-0.5) μg/mL

MIC [10]: > 64 µg/mL
Compound: CC[C@H]1OC(=O)[C@H](C)[C@@H](O[C@H]2C[C@@](C)(OC)[C@@H](O)[C@H](C)O2)[C@H](C)[C@@H](O[C@@H]2O[C@H](C)C[C@H](N(C)C)[C@H]2O)[C@](C)(O)C[C@@H](C)C(=O)[C@H](C)[C@@H](O)[C@]1(C)O [Erythromycin]
MIC ([11]; S. agalactiae MMX 3741, ERY^R CC^R): 8 µg/mL (≈ 10.9 µM)
MIC ([11]; S. agalactiae MMX 3743, ERY^R CC^R): > 8 µg/mL
MIC ([11]; S. agalactiae MMX 4077, ERY^R CC^R): > 8 µg/mL
MIC ([11]; S. agalactiae MMX 4079, ERY^R CC^R Pen^R MEM^R): > 8 µg/mL
MIC ([11]; S. agalactiae MMX 4086, ERY^R CC^R): > 8 µg/mL
CLSI QC range (MIC) [9]: (0.25-1) μg/mL
MIC, CLSI QC range [12]: (0.03-0.12) μg/mL
